According to patent US20140142106A1, “METHOD FOR TREATING PERITONEAL FIBROSIS” (TAIPEI VETERANS GENERAL HOSPITAL, priority 2012, published 2014):

How the values were obtained:
[1] = tested on: MeT-5A human mesothelial cell line; test: TGF-β1-treated MeT-5A mesothelial cells: morphology, immunofluorescent staining; assay type: cell-based
Description: (§1) The MeT-5A human mesothelial cell line, obtained from the American Type Culture Collection (ATCC, Manassas, Va., USA), was cultured in DMEM (Biological Industries, Israel) containing 15% fetal bovine serum (Thermo Scientific, Waltham, Mass., USA), and 1% penicillin/streptomycin/L-glutamine (Biological Industries, Israel). The primary culture of human peritoneal mesothelial cells (HPMC) were prepared as previously described. All patient materials were processed following the ethics regulations of the Institutional Review Board of Taipei Veterans General Hospital.
(§2) To assess the effects of CB1R antagonist on mesothelial cells, we pretreated the MeT-5A cells and RPMC with 5 μM of AM281 for 1 hour, and followed by simultaneous AM281 and TGF-β1 (R&D systems, Minneapolis, Minn., USA) treatment for 5 days. Various TGF-β1 concentrations (0.1 to 1.0 ng/mL) were used. In the CB2R experiment, AM1241 was used instead to test MeT-5A cells and HPMC.
For immunofluorescent studies, we grew mesothelial cells in slide flasks (Lab-Tek II; Nalge Nunc. Naperville, Ill., USA).
Cells were observed using a confocal LASER microscope (Leica, Wetzlar, Germany), and fluorescent intensity was analyzed using an image-processing software (AlphaEaseFC 4.0, Alpha Innotech, Santa Clara, Calif., USA). The cytoplasmic fluorescent intensity of individual cell is defined as integrated density value (IDV) of selected cytoplasmic area; the average fluorescent intensity of an image field is defined as average density value (ADV=total IDV/total cytoplasmic area).

[2] = tested on: TGF-β1, VEGF, and Snail mRNA in rat peritoneal tissue; test: RT-PCR of rat peritoneal tissue after MGO treatment; assay type: in vivo, Sprague-Dawley (SD) rats; details: representative PCR
Description: (§3) All animal experiments were performed following the guidelines of the Institutional Committee for Animal Experimentation of Taipei Veterans General Hospital. Five week-old male Sprague-Dawley (SD) rats were purchased from the Laboratory Animal Center of National Yang-Ming University. Peritoneal dialysis fluid (PDF) was prepared according to Hirahara et al. [10;22], containing 2.5% glucose, 100 mmol/L NaCl, 35 mmol/L sodium lactate, 2 mmol/L CaCl2, and 0.7 mmol/L MgCl2, in a pH of 5.0. To test MGO effects, fifty mL/kg of PDF containing 0, 3, 6, 12 mM MGO (Sigma, St. Louis, Mo., USA) were injected intra-peritoneally for ten consecutive days. Dimethyl sulfoxide (DMSO) (Sigma, St. Louis, Mo., USA) was used as the solvent of MGO. For investigation of the effects of CBR ligands, SD rats were pretreated with PDF containing either a selective CB1R antagonist, AM281 (Alexis Biochemicals, Enzo Life Sciences, Farmingdale, N.Y., USA) (1 mg/kg/day) or a selective CB2R agonist, AM1241 (Sigma, St. Louis, Mo., USA) (1 mg/kg/day) for 3 days followed by continuous treatment of PDF containing respective CBR ligands (AM281 or AM1241) and 6 mM MGO for 10 days. Animals receiving PDF containing DMSO vehicle (without MGO) were used as control (n=6/group). All animals were euthanized at the end of experiments by exsanguinations under general anesthesia.
(§4) For mRNA expression analysis of peritoneal tissue TGF-β1, VEGF, and Snail, the rat peritoneum was resected and incubated with trypsin at 37° C. for 30 minutes. The mesothelium was then scratched from peritoneal surface and collected for reverse transcription-polymerase chain reaction (RT-PCR). In the mesothelial cell culture, the mRNA expression of CB1R, CB2R, and type I collagen were also assessed by the PCR analysis. Total RNA was extracted with TRIzol (Invitrogen, Carlsbad, Calif., USA). Contaminated genomic DNA was removed with RNAse-free DNAse (Ambion, Austin, Tex., USA) following the manufacturer's protocol. […]

[3] = tested on: MGO-induced peritoneal fibrosis; test: MGO-induced peritoneal fibrosis in rats, effects of CBR ligands (histology, morphometry); assay type: in vivo, Sprague-Dawley (SD) rats; details: 1 mg/kg/day in PDF i.p., n=6; for MGO-induced peritoneal thickening: 3 days pretreatment then 10 days with 6 mM MGO, Masson's trichrome
Description: as §3
Certain sections of rat peritoneal tissues were frozen at −80° C. for immunofluorescent analysis, while the remainder were fixed in a neutral formalin solution and then embedded in paraffin for histological analysis. For immunofluorescent staining of CBR, rat brain and spleen were used as the positive control of CB1R and CB2R, respectively. For peritoneal thickness quantification, parietal peritoneum sized 1.0×0.5 cm were sampled from four separate peritoneal sites of each rat, including right ventral, left ventral, right lateral, and left lateral abdomen. For each sampling site, the peritoneal thickness was averaged from 15 evenly measured points. Tissue sections were stained with Masson's trichrome to quantify peritoneal fibrosis. The number of mesothelial cells was determined by morphometric method. The hematoxylin and eosin-stained sections were digitalized using an Aperio ScanScope slide scanner (Aperio, San Diego, Calif., USA) at its highest resolution. The mean mesothelial cells per mm surface of peritoneal membrane were counted from 15 points in each peritoneal tissue section from four separate peritoneal areas per animal. The peritoneal angiogenesis was quantified as described by Patel et al.. […] The mean vessels per mm peritoneal membrane were counted from 15 points in each peritoneal tissue section from four separate peritoneal areas per animal.

[4] = tested on: rat peritoneal mesothelial cells (RPMC); test: TGF-β1-treated rat peritoneal mesothelial cell (RPMC) culture: morphology; assay type: cell-based; details: 5 μM, 1 hour pretreatment, then with TGF-β1 for 5 days
Description: The primary culture of rat peritoneal mesothelial cells (RPMC) were isolated from 5-week-old male SD rats. Trypsin-EDTA (Gibco, Grand Island, N.Y., USA) (1.25%; 100 mL/kg) was injected intra-peritoneally and was then aspirated after a 2-hour dwelling. The aspirate was centrifuged for 10 minutes at 1500 rpm, and was washed with phosphate buffered saline, and then cultured in DMEM containing 10% fetal bovine serum, and 1% penicillin/streptomycin/L-glutamine.
as §2

TGF-β1-activated PI3K = test: Western blot of PI3K in MeT-5A cells; assay type: cell-based, human; details: p110 catalytic subunit
Description: as §2
Phosphatidyl inositol 3 kinase (PI3K) activity in the MeT-5A cells was assessed by Western blot. Cell lysates were subjected to SDS-PAGE and probed with primary antibodies against the p110 catalytic subunit of PI3K (Upstate Millipore, Billerica, Mass., USA) or β-actin (Amersham Life Science, Buckinghamshire, UK).

[5] = tested on: human peritoneal mesothelial cells (HPMC); test: PCR analysis of type I collagen in TGF-β1-treated HPMC; assay type: cell-based; details: low TGF-β1 concentrations (0.01-0.05 ng/mL), differences not statistically significant
Description: as §1, §2
as §4, with “analysis.” for “analysis. Total RNA was extracted with TRIzol (Invitrogen, Carlsbad, Calif., USA). Contaminated genomic DNA was removed with RNAse-free DNAse (Ambion, Austin, Tex., USA) following the manufacturer's protocol.”

rat peritoneum = test: Intra-peritoneal PDF containing MGO in rats (peritoneal injury); assay type: in vivo, Sprague-Dawley (SD) rats; details: n=6
Description: All animal experiments were performed following the guidelines of the Institutional Committee for Animal Experimentation of Taipei Veterans General Hospital. Five week-old male Sprague-Dawley (SD) rats were purchased from the Laboratory Animal Center of National Yang-Ming University. Peritoneal dialysis fluid (PDF) was prepared according to Hirahara et al. [10;22], containing 2.5% glucose, 100 mmol/L NaCl, 35 mmol/L sodium lactate, 2 mmol/L CaCl2, and 0.7 mmol/L MgCl2, in a pH of 5.0. To test MGO effects, fifty mL/kg of PDF containing 0, 3, 6, 12 mM MGO (Sigma, St. Louis, Mo., USA) were injected intra-peritoneally for ten consecutive days. Dimethyl sulfoxide (DMSO) (Sigma, St. Louis, Mo., USA) was used as the solvent of MGO. […]
Certain sections of rat peritoneal tissues were frozen at −80° C. for immunofluorescent analysis, while the remainder were fixed in a neutral formalin solution and then embedded in paraffin for histological analysis. […] For peritoneal thickness quantification, parietal peritoneum sized 1.0×0.5 cm were sampled from four separate peritoneal sites of each rat, including right ventral, left ventral, right lateral, and left lateral abdomen. For each sampling site, the peritoneal thickness was averaged from 15 evenly measured points. […] The number of mesothelial cells was determined by morphometric method. […]

[6] = humans, long-term basis; cited from earlier work
[7] = tested on: CB1R and CB2R expression in MeT-5A cells; test: PCR assessment of CB1R and CB2R expression after TGF-β1 treatment; assay type: cell-based, human; details: exogenous TGF-β1, RT-PCR
Description: as §1
as §4, with “protocol. First-strand cDNA was synthesized from total RNA with Superscript™ first-strand cDNA synthesis system for RT-PCR (Invitrogen, Carlsbad, Calif., USA) using Oligo(dT) as primers. GAPDH was used as control.” for “protocol.”

[8] = in the presence of TGF-β1, immunofluorescent staining

Compound: Cc1c(C(=O)NN2CCOCC2)nn(-c2ccc(Cl)cc2Cl)c1-c1ccc(I)cc1 [AM281, N-(morpholin-1-yl)-1-(2,4-dichlorophenyl)-5-(4-iodophenyl)-4-methyl-1H-pyrazole-3-carboxamide]
- TGF-β1-induced cell elongation ([1]; 5 μM, 1 hour pretreatment, then with TGF-β1 for 5 days): reduces
- expression of E-cadherin [1, 8]: preserving
- expression of cytokeratin 8/18 [1, 8]: preserving
- type I collagen synthesis [1, 8]: inhibited
- up-regulated Snail after MGO treatment [2]: attenuated
- up-regulated TGF-β1 after MGO treatment [2]: attenuated
- up-regulated VEGF after MGO treatment [2]: attenuated
- MGO-induced mesothelial cell detachment ([3]; 6 mM MGO 10 days): attenuated
- MGO-induced angiogenesis ([3]; 6 mM MGO 10 days, α-SMA staining): attenuated
- MGO-induced peritoneal thickening [3]: significantly attenuated
- TGF-β1-induced cell elongation [4]: reduces
- TGF-β1-activated PI3K (TGF-β1-activated PI3K): suppressed

Compound: CN1CCCCC1Cn1cc(C(=O)c2cc([N+](=O)[O-])ccc2I)c2ccccc21 (stereo not drawn) [AM1241, (2-iodo-5-nitrophenyl)-[1-[(1-methylpiperidin-2-yl)methyl]indol-3-yl]methanone]
- type I collagen synthesis [5]: tended to suppress
- MGO-induced peritoneal thickening [3]: significantly attenuated

Compound: CC(=O)C=O [MGO, methylglyoxal]
- peritoneal thickness (rat peritoneum; PDF containing 0, 3, 6, 12 mM MGO i.p. for ten consecutive days): significant increase
- surface mesothelial cells (rat peritoneum; higher concentration of MGO (6-12 mM), i.p. ten days): prominent loss

Compound: C=C(C)[C@@H]1CCC(C)=C[C@H]1c1c(O)cc(CCCCC)cc1O [cannabidiol]
- tolerability on long-term administration [6]: well-tolerated without adverse effects

Compound: TGF-β1: exogenous TGF-β1 (R&D systems) used to treat mesothelial cells
- CBR levels (CB1R, CB2R mRNA) [7]: no significant effect
